Data published in publication PMC2956513, “Novel tricyclic pyrazole BRAF inhibitors with imidazole or furan central scaffolds” (Bioorganic & Medicinal Chemistry, 2010).

Key:
V600EBRAF = V600EBRAF (Homo sapiens, UniProt P15056, V600E); test: V600EBRAF kinase assay (MEK1/2 phosphorylation as endpoint); assay type: biochemical; details: for BRAF activity in words: BRAF IC50 assay; for IC50: isolated full length V600EBRAF kinase activity
Procedure: (§1) The biological activities of compounds 1a–p were assessed in three assays: • (1) Inhibition of the isolated ^V600EBRAF kinase activity (IC50 BRAF), measuring MEK1/2 phosphorylation as the endpoint.[15] […] We measured the IC50 BRAF values in this paper, since they represent the inhibition of BRAF function which we consider more meaningful than the binding of inhibitor to BRAF. • (2) Inhibition of ^V600EBRAF-dependent ERK phosphorylation in WM266.4 melanoma cells (IC50 pERK). • (3) Growth inhibition of WM266.4 melanoma cells measured by sulforhodamine-B (GI50 SRB).
(§2) These assays have been described by Niculescu-Duvaz et al.[15]

[1] = system: V600EBRAF-dependent ERK phosphorylation in WM266.4 melanoma cells; test: Phospho-ERK IC50 assay in WM266.4 cells; assay type: cell-based, human; details: for IC50: Homo sapiens, WM 266-4, 6 h incubation, read-out: IC50 ppERK
Procedure: as §1
To determine the effect of compounds on BRAF activity in cells, WM266.4 cells were seeded at a density of 3 × 10^4 cells per well of a 96 well plate. The following day, test compounds were diluted into growth medium to 2× the desired final concentration and then added directly to the cells. After a 6 h incubation, the medium was removed and cells were fixed and permeabilized in 4% formaldehyde, 0.1% triton X-100 in PBS for 30 min. The wells were then blocked with 5% milk in PBS for 30 min at room temperature, followed by the addition of an antibody for phospho-ERK1/2 (Sigma, Dorset, UK) at […] in blocking solution. Plates were incubated for 3 h with shaking. Plates were washed three times with 0.1% Tween 20 using an ELx50 plate washer (BioTek, Winooski, USA). […] of a Europium-labelled anti-mouse secondary antibody (Perkin Elmer, Turku, Finland) was added to the wells in DELFIA assay buffer for 1 h. Plates were washed again and Enhancement solution was added to the wells and time resolved fluorescence was measured as instructed by the manufacturer after 20 min using a Spectramax M5 plate reader (Molecular Devices, Berkshire, UK). The plates were washed again and BCA protein assay reagent (Sigma, Dorset, UK) was added to the wells and incubated for 30 min at 37 °C. Absorbance at 570 nm was measured using a plate reader and used to normalize the fluorescence data. Inhibition of ERK phosphorylation was determined as a percentage of DMSO-treated cells and IC50 values were calculated using Prism (GraphPad Software, San Diego, USA).

WM266.4 melanoma cells = test: Growth inhibition of WM266.4 cells by sulforhodamine-B (SRB); assay type: cell-based, human; details: for GI50 / GI50 SRB activity in words: WM266.4 cells; for GI50: sulforhodamine-B
Procedure: as §1, §2

BRAF = BRAF (Homo sapiens, UniProt P15056); test: BRAF fluorescent ligand binding assay; details: alternative BRAF fluorescent ligand binding assay
Sequence of BRAF (P15056 whole entry): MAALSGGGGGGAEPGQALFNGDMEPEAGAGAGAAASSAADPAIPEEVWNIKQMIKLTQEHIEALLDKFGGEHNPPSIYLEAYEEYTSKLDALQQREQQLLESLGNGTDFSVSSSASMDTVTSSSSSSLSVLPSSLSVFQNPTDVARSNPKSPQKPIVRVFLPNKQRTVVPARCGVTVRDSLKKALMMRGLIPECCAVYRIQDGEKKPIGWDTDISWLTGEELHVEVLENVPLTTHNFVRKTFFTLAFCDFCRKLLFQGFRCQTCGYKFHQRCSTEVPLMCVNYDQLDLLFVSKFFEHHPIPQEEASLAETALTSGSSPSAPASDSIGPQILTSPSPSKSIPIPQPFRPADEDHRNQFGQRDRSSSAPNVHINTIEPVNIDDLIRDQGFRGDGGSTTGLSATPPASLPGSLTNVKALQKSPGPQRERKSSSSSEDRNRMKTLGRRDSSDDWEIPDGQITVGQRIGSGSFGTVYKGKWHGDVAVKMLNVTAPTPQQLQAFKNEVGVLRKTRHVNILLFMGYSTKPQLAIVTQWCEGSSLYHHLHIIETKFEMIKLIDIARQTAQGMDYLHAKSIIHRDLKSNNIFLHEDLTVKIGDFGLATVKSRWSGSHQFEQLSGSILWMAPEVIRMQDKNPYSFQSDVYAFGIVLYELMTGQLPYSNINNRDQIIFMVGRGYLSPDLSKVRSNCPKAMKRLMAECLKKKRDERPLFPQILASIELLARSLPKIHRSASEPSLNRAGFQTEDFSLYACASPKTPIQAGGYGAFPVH

[2] = PK assessment in mice after intraperitoneal administration; assay type: in vivo, mouse; details: CD1 nu/nu female mice, intraperitoneal 4 mg/kg, cassette dosing
Procedure: The apparent clearance, half-life (t1/2) and maximal plasma concentration of a representative tricyclic pyrazole, compound 1h, were determined in vivo in CD1 nu/nu female mice following an intraperitoneal administration of 1h.
Female Crl:CD1-Foxn1nu mice at least six weeks of age bearing mutant BRAF WM266.4 human tumor xenografts were used for the PK analyses. The mice were dosed intraperitoneally (4 mg/kg, equivalent to ca. 8 μmol/kg, 10 ml/kg, in 10% ethanol:40% PEG:50% Gelofusine v/v) in a cassette with 4 other compounds. Samples were taken at 8 time-points between 15 min and 24 h. Three mice were utilized per time-point. They were placed under isoflurane anaesthesia and blood for plasma preparation was taken by terminal cardiac puncture into heparinized syringes. Plasma samples were snap frozen in liquid nitrogen and then stored at −70 °C prior to analysis. All procedures involving animals were performed in accordance with national Home Office regulations under the Animals (Scientific Procedures) Act 1986 and within guidelines set out by the Institute’s Animal Ethics Committee and the United Kingdom Coordinating Committee for Cancer Research’s ad hoc Committee on the Welfare of Animals in Experimental Neoplasia.

Sequence of V600EBRAF (P15056 whole entry V600E): as the sequence (P15056 whole entry) above, with V600E counted along it

Row | Compound | IC50 (V600EBRAF) | IC50 [1] | GI50 (WM266.4 melanoma cells; Homo sapiens, WM 266-4) | other results
1 | CN1CCN(c2ccc(-c3nc(-c4ccc5c(c4)Cc4cn[nH]c4-5)c(-c4ccncc4)[nH]3)cc2)CC1 [1j, 6-{2-[4-(4-Methyl-piperazin-1-yl)-phenyl]-5-pyridin-4-yl-3H-imidazol-4-yl}-2,4-dihydro-indeno[1,2-c]pyrazole] | 0.24 µM | 0.58 µM | 0.87 µM | BRAF activity in words (V600EBRAF): submicromolar activity; IC50 ppERK activity in words [1]: submicromolar activity; GI50 SRB activity in words (WM266.4 melanoma cells): submicromolar activity
2 | c1cc(-c2[nH]c(C3CCNCC3)nc2-c2ccc3c(c2)Cc2cn[nH]c2-3)ccn1 [1k, 6-(2-Piperidin-4-yl-5-pyridin-4-yl-3H-imidazol-4-yl)-2,4-dihydro-indeno[1,2-c]pyrazole] | 1.33 µM | 4.9 µM | 36 µM | 
3 | CN(C)CCOc1ccc(-c2nc(-c3ccc4c(c3)CCc3cn[nH]c3-4)c(-c3ccncc3)[nH]2)cc1 [1e, (2-{4-[5-(4,5-Dihydro-2H-benzo[g]indazol-7-yl)-4-pyridin-4-yl-1H-imidazol-2-yl]-phenoxy}-ethyl)-dimethyl-amine] | 1.84 µM | 5.8 µM |  | 
4 | CN(C)CCOc1ccc(-c2nc(-c3ccc4c(c3)Cc3nn[nH]c3-4)c(-c3ccncc3)[nH]2)cc1 [1i, (2-{4-[5-(3,8-Dihydro-indeno[1,2-d] [1,2,3]triazol-6-yl)-4-pyridin-4-yl-1H-imidazol-2-yl]-phenoxy}-ethyl)-dimethyl-amine] | > 10 µM | 4.4 µM |  | BRAF activity in words (V600EBRAF): inactive
5 | CN(C)CCN1CCN(C(=O)c2cc(-c3ccc4c(c3)Cc3cnn(C)c3-4)c(-c3ccncc3)o2)CC1 [1p, [4-(2-Dimethylamino-ethyl)-piperazin-1-yl]-[4-(1-methyl-1,4-dihydro-indeno [1,2-c]pyrazol-6-yl)-5-pyridin-4-yl-furan-2-yl]-methanone] | > 10 µM | > 10 µM |  | 
6 | CN(C)CCOc1ccc(-c2nc(-c3ccc(-c4n[nH]cc4Cl)cc3)c(-c3ccncc3)[nH]2)cc1 [1d, [2-(4-{5-[4-(4-Chloro-1H-pyrazol-3-yl)-phenyl]-4-pyridin-4-yl-1H-imidazol-2-yl}-phenoxy)-ethyl]-dimethyl-amine] | 3.7 µM | 10 µM | 4.1 µM | 
7 | O=C(c1cc(-c2ccc3c(c2)Cc2cn[nH]c2-3)c(-c2ccncc2)o1)N1CCNCC1 [1n, [4-(2,4-Dihydro-indeno[1,2-c]pyrazol-6-yl)-5-pyridin-4-yl-furan-2-yl]-piperazin-1-yl-methanone] | 2.78 µM | 0.97 µM | 1.59 µM | 
8 | CN(C)CCOc1ccc(-c2nc(-c3ccc4c(ccc5cn[nH]c54)c3)c(-c3ccncc3)[nH]2)cc1 [1f, (2-{4-[4-(1H-Benzo[g]indazol-7-yl)-5-pyridin-4-yl-1H-imidazol-2-yl]-phenoxy}-ethyl)-dimethyl-amine] | 1.71 µM | 25 µM | 3.3 µM | 
9 | CN(C)CCOc1ccc(-c2nc(-c3ccc4c(c3)CC3CC(=O)NN=C43)c(-c3ccncc3)[nH]2)cc1 (centres unmarked) [1g, 7-{2-[4-(2-Dimethylamino-ethoxy)-phenyl]-5-pyridin-4-yl-1H-imidazol-4-yl}-2,4,4a,5-tetrahydro-indeno[1,2-c]pyridazin-3-one] | > 10 µM | 100 µM | 8.9 µM | 
10 | CN(C)CCOc1ccc(-c2nc(-c3ccc4c(c3)Cc3cn[nH]c3-4)c(-c3ccncc3)[nH]2)cc1 [1h, (2-{4-[5-(2,4-Dihydro-indeno[1,2-c]pyrazol-6-yl)-4-pyridin-4-yl-1H-imidazol-2-yl]-phenoxy}-ethyl)-dimethyl-amine] | 0.23 µM | 1.09 µM | 1.15 µM | IC50 (WM266.4 melanoma cells; Homo sapiens, WM 266-4, SRB cellular IC50, value in PK text): 1.1 µM; Kd (BRAF): 0.0061 µM; half-life ([2]; CD1 nu/nu (Crl:CD1-Foxn1nu), mouse, ip, plasma, read-out: half-life (T1/2) (converted)): 3.9 h; Cmax ([2]; CD1 nu/nu (Crl:CD1-Foxn1nu), mouse, ip, plasma, read-out: maximal plasma concentration (Cmax)): 5.8 µM; plasma clearance (CL) ([2]; apparent clearance): 11 mL/min/kg
11 | CN(C)CCOc1ccc(-c2nc(-c3ccc(-c4n[nH]cc4C#N)cc3)c(-c3ccncc3)[nH]2)cc1 [1c, 3-(4-{2-[4-(2-Dimethylamino-ethoxy)-phenyl]-5-pyridin-4-yl-3H-imidazol-4-yl}-phenyl)-1H-pyrazole-4-carbonitrile] | > 10 µM | > 100 µM | 11 µM | 
12 | CN1CCN(C(=O)c2cc(-c3ccc4c(c3)Cc3cn[nH]c3-4)c(-c3ccncc3)o2)CC1 [1o, [4-(2,4-Dihydro-indeno[1,2-c]pyrazol-6-yl)-5-pyridin-4-yl-furan-2-yl]-(4-methyl-piperazin-1-yl)-methanone] | 7.5 µM | 0.73 µM | 1.91 µM | 
13 | CN(C)CCN1CCN(C(=O)c2cc(-c3ccc4c(c3)Cc3cn[nH]c3-4)c(-c3ccncc3)o2)CC1 [1l, [4-(2,4-Dihydro-indeno[1,2-c]pyrazol-6-yl)-5-pyridin-4-yl-furan-2-yl]-[4-(2-dimethylamino-ethyl)-piperazin-1-yl]-methanone] | 3.6 µM | 0.74 µM | 1.61 µM | 
14 | CN(C)CCOc1ccc(-c2nc(-c3ccc(-c4cc[nH]n4)cc3)c(-c3ccncc3)[nH]2)cc1 [1a, Dimethyl-[2-(4-{5-[4-(1H-pyrazol-3-yl)-phenyl]-4-pyridin-4-yl-1H-imidazol-2-yl}-phenoxy)-ethyl]-amine] | 1.6 µM | 5.8 µM | 7.4 µM | 
15 | O=C(c1cc(-c2ccc3c(c2)Cc2cn[nH]c2-3)c(-c2ccncc2)o1)N1CCOCC1 [1m, [4-(2,4-Dihydro-indeno[1,2-c]pyrazol-6-yl)-5-pyridin-4-yl-furan-2-yl]-morpholin-4-yl-methanone] | 2.15 µM | 0.84 µM | 0.94 µM | IC50 ppERK activity in words [1]: submicromolar activity; GI50 SRB activity in words (WM266.4 melanoma cells): submicromolar activity
16 | Cc1c[nH]nc1-c1ccc(-c2nc(-c3ccc(OCCN(C)C)cc3)[nH]c2-c2ccncc2)cc1 [1b, Dimethyl-[2-(4-{5-[4-(4-methyl-1H-pyrazol-3-yl)-phenyl]-4-pyridin-4-yl-1H-imidazol-2-yl}-phenoxy)-ethyl]-amine] | 1.2 µM | 2.02 µM | 3.9 µM | 
